Test results reported in patent US7122577B1, “Composition comprising a carrier and a purified mycobacterial lipid cell-wall component and its use in the treatment and diagnosis of disease” (priority 1997, dated 2006).

System: adjuvant arthritis
Conditions: rat, in vivo

mycolic acids [MA tb]
Toxic effects: No toxic effects | Toxic effects within the tested doses: No toxic effects
